Test results published in patent publication US20230011398A1, “COMBINATION THERAPY APPROACH TO ELIMINATE HIV INFECTIONS” (priority 2019, published 2023).

Columns and labels:
[1] = test system: HIV-1-infected T cells; experiment: Annexin V / DEVD-FITC / p24 cell death assay in T cells with or without HIV-1 infection; assay type: cell-based, human; details: for IDB-induced killing of T cells latently infected by HIV-1: added to 0.1 μM IDB, SAR405 2 μM or ABT-263 0.2 μM; for IDB-induced cell death in HIV-1-infected CMT: autophagy inhibitor added to 100 nM IDB, 24 h
Experimental: Naïve T cells, activated T cells, CMT or EMT with or without infection with HIV-1 (NL4-3, 1 MOI) were cultured for 4 days in the presence of 30 nM CCL19 and 0.3 ng/ml IL-2 for 4 days to establish latent HIV infection. […] The cells were then incubated with 1 μM FITC-DEVD-FMK (Biovision), followed by staining with APC-Annexin V (Biolegend) and intracellular staining with PE-anti-HIV p24. The cells were analyzed by flow cytometry. The percentage of cell death was calculated by the loss of live cells negative for annexin V and DEVD staining by comparing treated and untreated groups: (untreated—treated)/untreated x 100%.

[2] = test system: HIV-1-infected cells and uninfected bystander T cells; experiment: Mixed culture of HIV-1-infected and CellTrace Violet-labeled uninfected T cells; details: alone or together, 0.2 μM BMS-626529 present, 48 h
Experimental: To determine the specificity in the killing of HIV-1 infected cells, uninfected CD4 cells were labeled with CellTrace Violet dye (ThermoFisher Scientific) and mixed with HIV-1-infected cells at the ratio of 1:1. The cells were resuspended in RIPMI complete medium containing 0.2 μM BMS-626529, with 0.1 μM IDB, 0.2 μM ABT-263 and 2 μM SAR405 as indicated for 48 h. The cells were incubated with 1 μM FITC-DEVD-FMK, followed by staining with APC-Annexin and analyses by flow cytometry.

[3] = test system: CMT latently infected with HIV-1; experiment: HIV-1 latency reversal in latently infected central memory T cells (p24 staining, HIV-1 mRNA RT-PCR); assay type: cell-based, human; details: for number of HIV-1 p24-producing T cells after latency reversal: latently infected CMT stimulated with IDB, SAR405 2 μM or CQ 10 μM
From the text: Flow cytometry. The following antibodies from Biolegend were used for flow cytometry: Pacific Blue-anti-mouse CD45 (1:100, 103126, clone 30-F11,) APC-anti-human CD45 (1:100, 304012, clone HI30), Pacific Blue-anti-human CD19 (1:100, 302232, clone HIB19), PE-anti-human CD4 (1:100, 317414, clone OKT4), APC/Fire-750-anti-human CD8 (1:100, 34474, clone SK1), FITC-anti-human CD56 (1:100, 392413, clone QA17A16), Pacific Blue-anti-human CD19 (1:100, 302232, clone HIB19), Pacific Blue-anti-human CD3 (1:100, 300329, clone HIT3a), PE/Cy7-anti-HLA-HLA-DR, DP, DQ (1:100, 361708, clone Tü139), PerCP/Cy5.5-anti-human CD11b (1:100, 301327, clone ICRF44), APC/Fire-750-anti-human CD163 (1:100, 333633, clone GHI/61), PE-anti-human CD123 (1:100, 306005, clone 6H6), Alexa Fluor 488 anti-human CD11c (1:100, 301618, clone 3.9), PerCP/Cy5.5-anti-human CD3 (1:100, 300328, clone HIT3a), PerCP/Cy5.5 anti-human CD123 (1:100, 306016, clone 6H6), FITC-anti-mouse CD45 (1:100, 103108, clone 30-F11), PE/Cy7 anti-human CD197 (CCR7) (1:100, 353226, clone G043H7), PE-anti-human CD45R0 (1:100, 304244, clone UCHL1), FITC-anti-human CD45RA (1:100, 304148, clone HI100) and Alexa Fluor 488-anti-CD68 (1:30, 333812, clone Y1/82A), PerCP/Cy5.5-anti-human CD19 (1:100, 302230, clone HIB19), PE-anti-human CD27 (1:100, 356406, clone M-T271) and Pacific Blue-anti-human IgD (1:100, 348224, clone IA6-2). PE-anti-human CD3 (1:100, 556612, clone SP34) and V50-anti-human CD4 (1:100, 560345, clone RPA-T4) were from BD Biosciences. The cells stained with indicated antibodies were analyzed using a BD LSR II flow cytometer (BD Biosciences). To detect HIV-1 p24, spleen cells from Hu-HSC mice were stimulated with 5 μg/ml PHA (Sigma) and 6 ng/ml IL-2 (Biolegend). The cells were stained for T cell markers, followed by fixation and permeabilization using the Cytofix/Cytoperm buffer (BD Bioscience) and intracellular staining with PE-conjugated anti-p24 (1:30, 6604667, clone KC57, Beckman Coulter). The cells were analyzed by flow cytometry using a BD LSR II flow cytometer (BD Bioscience) and FlowJo software (version 10.5.3, BD Bioscience).
T cell isolation and infection with HIV-1. Peripheral blood mononuclear cells (PBMCs) of anonymous healthy donors from the Gulf Coast Blood Center were used to purify CD4^+ T cells with anti-CD4 MACS beads (Miltenyi Biotec). CD3^+CD4^+CD45RA^+CD45RO^−CCR7^+ naïve T cells, CD3^+CD4^+CD45RA^−CD45RO^+CCR7+ central memory T cells (CMT) and CD3^+CD4^+CD45RA^−CD45RO^+CCR7^− effector memory T cells (EMT) were sorted using a BD FACSAria flow cytometer (BD Bioscience). Naive CD4^+ T cells were stimulated with 5 μg/ml PHA and 6 ng/ml IL-2 in RPMI complete medium for 2 days to generate activated CD4^+ T cells. Sorted T cell subsets or activated T cells were infected with HIV-1 CXCR4-tropic NL4-3 or CCRS-tropic AD8 (both virus clones were obtained from the NIH AIDS Reagent Program) at the indicated MOI for 2 h. The cells were washed with PBS and cultured in RPMI complete medium containing 30 nM CCL19 (Biolegend) and 0.3 ng/ml IL-2 (Biolegend) and for 4 days to establish latent HIV infection as described.
Naïve T cells, activated T cells, CMT or EMT with or without infection with HIV-1 (NL4-3, 1 MOI) were cultured for 4 days in the presence of 30 nM CCL19 and 0.3 ng/ml IL-2 for 4 days to establish latent HIV infection. The cells with or without HIV-1 infections were stimulated with 0.1 μM IDB (Ingenol-3,20-dibenzonate, ENZO Life Sciences) in the presence of 0.2 μM ABT-263 (Adooq Bioscience), 2 μM SAR405 (MedChemExpress) or 10 μM chloroquine (CQ, Sigma) as indicated for 48 h. The cells were then incubated with 1 μM FITC-DEVD-FMK (Biovision), followed by staining with APC-Annexin V (Biolegend) and intracellular staining with PE-anti-HIV p24. The cells were analyzed by flow cytometry. The percentage of cell death was calculated by the loss of live cells negative for annexin V and DEVD staining by comparing treated and untreated groups: (untreated—treated)/untreated x 100%. […]

[4] = test system: HIV-1-infected Hu-HSC mice; experiment: SECH treatment of HIV-1-infected Hu-HSC mice (HIV-1 by RT-PCR, rebound after withdrawal); assay type: in vivo; details: JQ1 25 mg/kg b.w. included in SECH
Experimental: Raltegravir and BMS-663068 (20 mg/kg b.w.) were included as the ART regimen daily. Mice in the control group received ART only daily.
Quantification of HIV-1 mRNA and DNA. HIV-1 mRNA was measured by RT-PCR similar to the described protocols. […] The reaction was carried out by iTaq Universal Probes Supermix (Bio-Rad) with a QuantStudio 5 Real-Time PCR System and analyzed with the QuantStudio Design and Analysis Software (Applied Biosystem). Cycle threshold (Ct) values were calibrated using standard curve generated with the standard samples with known amounts of viral copies.
Spleen cells were isolated and red blood cells were lysed with ammonium chloride lysing buffer (0.15 M NH4Cl, 10 mM KHCO3, 0.1 mM EDTA). Bone marrow cells were collected from femur and tibia. […]
Generation of humanized mice for HIV-1 infection and cure studies. […] Three months later, reconstitution of human immune cells in mouse peripheral blood was determined by flow cytometry. […]
Raltegravir and BMS-663068 (20 mg/kg b.w.) alone were also administered on the alternate days. […] During treatments, mice were monitored daily for body weight, food consumption and mobilities. […]
Peripheral blood was collected at different intervals to detect HIV-1 mRNA by RT-PCR. […] Virus clearance was determined in the spleen, bone marrow by RT-PCR, TZA assay and p24 intracellular staining.

[5] = test system: splenocytes of HIV-1-infected Hu-HSC mice; experiment: PHA stimulation of splenocytes from Hu-HSC mice 10 days after HIV-1 infection; assay type: cell-based; details: PHA 24 h
Experimental: FIGS. 11A-11C show analyses of Hu-HSC mice by flow cytometry. (FIG. 11A) Flow cytometry analyses of immune cells in the peripheral blood of Hu-HSC mice. NK, nature killer cells; DC, dendritic cells; M1, M1 macrophages; M2, M2 macrophages. (FIG. 11B) Spleen cells were isolated from Hu-HSC mice (n=4) 10 days post HIV-1 infection and cultured with or without PHA for 24 h. Culture media were collected for HIV-1 mRNA determination by RT-PCR. Data are presented as mean ±SD. PHA vs. control, **p=0.0088 (unpaired two-tailed t test). (FIG. 11C) Spleen cells treated in (b) were stained for CD4, followed by intracellular staining of HIV-1 p24 and flow cytometry analysis. […] Data are presented as mean ±SD. PHA vs. control, **p=0.0003 (unpaired two-tailed t test).
Flow cytometry. […] The cells stained with indicated antibodies were analyzed using a BD LSR II flow cytometer (BD Biosciences). […] The cells were analyzed by flow cytometry using a BD LSR II flow cytometer (BD Bioscience) and FlowJo software (version 10.5.3, BD Bioscience).

Compound | IDB-induced killing of T cells latently infected by HIV-1 ([1]; 48 h) | killing of HIV-1-infected cells in mixed culture [2] | killing of uninfected bystander cells in mixed culture [2] | IDB-induced cell death in HIV-1-infected CMT [1] | number of HIV-1 p24-producing T cells after latency reversal [3] | also measured
CC1(C)CCC(c2ccc(Cl)cc2)=C(CN2CCN(c3ccc(C(=O)NS(=O)(=O)c4ccc(N[C@H](CCN5CCOCC5)CSc5ccccc5)c(S(=O)(=O)C(F)(F)F)c4)cc3)CC2)C1 [ABT-263, navitoclax] | increased IDB-mediated cell death | killed HIV-1-infected cells | resistant |  |  | loss of viable HIV-1 p24+ cells in IDB-stimulated HIV-1-infected cells ([1]; ABT-263 0.2 μM with IDB, 48 h): significantly increased
CCN(CC)CCCC(C)Nc1ccnc2cc(Cl)ccc12 (centres unmarked) [CQ, Chloroquine] |  |  |  | promoted | reduced the number of HIV-1 p24-producing T cells | 
Cc1sc2c(c1C)C(c1ccc(Cl)cc1)=N[C@@H](CC(=O)OC(C)(C)C)c1nnc(C)n1-2 [JQ1] |  |  |  |  |  | HIV-1 reactivation and clearance on inclusion of JQ1 in SECH [4]: further increased HIV-1 reactivation and clearance
C[C@@H]1COCCN1c1cc(=O)n2c(n1)N(Cc1cncc(Cl)c1)[C@H](C(F)(F)F)CC2 [SAR405] | increased IDB-induced killing | killed HIV-1-infected cells | resistant | promoted | decreased the number of HIV-1 p24-producing T cells | induction of HIV-1 p24 expression by IDB-induced latency reversal ([3]; CMT infected with HIV-1 AD8 at 1 MOI): inhibited
phytohemagglutinin [PHA] |  |  |  |  |  | latency reversal of HIV-1 shown by induction of p24 expression ([3]; CMT, HIV-1 NL4-3 0.1 MOI, 4 days latency): led to latency reversal of HIV-1; latency reversal observed by expression of HIV-1 mRNA after stimulation ([3]; latently infected cells, pol RT-PCR): Latency reversal was also observed; expression of HIV-1 mRNA in splenocytes [5]: induced the expression of HIV-1 mRNA; production of Gag p24 in CD4+ T cells [5]: production of Gag p24
